Measurements published in patent publication US20240262815A1, “HETEROARYL DERIVATIVE, METHOD FOR PREPARING SAME, AND PHARMACEUTICAL COMPOSITION COMPRISING SAME AS ACTIVE INGREDIENT” (VORONOI INC., priority 2021, published 2024).

System: SK-BR-3 cancer cells
Assay: Inhibitory activity against proliferation of SK-BR-3 cancer cells (CellTiter-Glo)
Type: cell-based
Details: ErbB2-overexpressing SK-BR-3 cells, 120 hours after treatment
Method: To evaluate the inhibitory activity of a compound according to the present invention against the proliferation of ErbB2-overexpressing cancer cells, the following experiment were performed.
10% FBS-added McCOY'S 5A was used for SK-BR-3 cancer cells. 20% FBS-added RPMI-1640 was used for BT-474 cancer cells. Transduced Ba/F3 cells were cultured in a RPMI-1640 medium to which 1 μg/ml puromycin (Invitrogen) was added.
48 hours before compound treatment, each type of the SK-BR-3 and BT-474 cells were seeded at 5,000 cells/well in a white clear bottom 96 well plate (Corning). The compound was diluted in dimethyl sulfoxide (SK-BR-3: 3-fold dilution, a total of 12 concentrations, BT-474: […], a total of 12 concentrations) and injected at 1 μl to have the final concentration of 0.2 nM to 5 μM. As for measurement of live cells, 120 hours after treatment with the compound, a CellTiter-Glo luminescent cell-viability reagent (Promega) was used to store the cells at room temperature for 10 minutes, followed by measurement of luminescence using a reader (SynergyNeo, Biotek). Each test was repeated three times.
The result values were calculated as a cell growth rate (%) compared to the control group. A graph was plotted using the GraphPad Prism version 8.3.0 program, and GI50 values were calculated.

Row | SMILES | GI50 (Homo sapiens, SK-BR-3, 120 h) [nM] | GI50 [nM]
1 | C=CC(=O)Nc1cc(Nc2cc(N3OCC[C@@H]3c3cc(F)cc(-c4cccs4)c3)ncn2)c(OC)cc1N(C)CCN(C)C [Example 243, (R)-N-(2-((2-(dimethylamino)-ethyl)(methyl)-amino)-5-((6-(3-(3-fluoro-5-(thio-phen-2-yl)phenyl)-isoxazolidin-2-yl)-pyrimidin-4-yl)-amino)-4-methoxy-phenyl)acrylamide] | < 50 | –
2 | C=CC(=O)Nc1cc(Nc2cc(N3OCC[C@H]3c3cccc(-c4cccc(F)c4)c3F)ncn2)c(OC)cc1N1CCC(N2CCN(C3CC3)CC2)CC1 [Example 251, (S)-N-(2-(4-(4-cyclopropylpiper-azin-1-yl)piper-idin-1-yl)-5-((6-(3-(2,3′-difluoro-[1,1′-biphenyl]-3-yl)-isoxazolidin-2-yl)-pyrimidin-4-yl)-amino)-4-methoxy-phenyl)acrylamide] | 500 to 5000 | –
3 | C=CC(=O)Nc1cc(Nc2cc(N3OCC[C@@H]3c3cccc(-c4cccc(F)c4)c3)ncn2)c(OC)cc1N1CC2CCC(C1)N2C1CC1 [Example 316, N-(2-((1R,5S)-8-cyclopropyl-3,8-diazabicyclo-[3.2.1]octan-3-yl)-5-((6-((R)-3-(3′-fluoro-[1,1′-biphen-yl]-3-yl)isoxazol-idin-2-yl)pyrim-idin-4-yl)amino)-4-methoxyphenyl)-acrylamide] | 50 to 500 | –
4 | C=CC(=O)Nc1cc(Nc2cc(N3OCCC3c3cccc(-c4cccc(F)c4)c3)ncn2)c(OC)cc1N(C)CCN(C)C (centres unmarked) [Example 212, N-(2-((2-(dimeth-yl-amino)ethyl)-(methyl)amino)-5-((6-(3-(3′-fluoro-[1,1′-biphenyl]-3-yl)isoxazolidin-2-yl)pyrimidin-4-yl)amino)-4-meth-oxyphenyl)acryl-amide] | – | 50 to 500
5 | C=CC(=O)Nc1cc(Nc2cc(N3OCC[C@@H]3c3cccc(-c4cccc(F)c4)c3F)ncn2)c(OC)cc1N1CCC(N2CCN(C3CC3)CC2)CC1 [Example 252, (R)-N-(2-(4-(4-cyclopropylpiper-azin-1-yl)piper-idin-1-yl)-5-((6-(3-(2,3′-difluoro-[1,1′-biphenyl]-3-yl)isoxazolidin-2-yl)pyrimidin-4-yl)-amino)-4-methoxy-phenyl)acrylamide] | < 50 | –
6 | C=CC(=O)Nc1cc(Nc2cc(N3OCC[C@@H]3c3cccc(OCc4cccc(C)n4)c3)ncn2)c(OC)cc1N1CCC(N2CCN(C3CC3)CC2)CC1 [Example compound 100, (R)-N-(2-(4-(4-cyclopropylpiperazin-1-yl)piperidin-1-yl)-4-methoxy-5-((6-(3-(3-((6-methylpyridin-2-yl)methoxy)phenyl)isoxazolidin-2-yl)pyrimidin-4-yl)amino)phenyl)acrylamide] | 50 to 500 | –
7 | C=CC(=O)Nc1cc(Nc2cc(N3OCCC3c3cccc(C#Cc4ccccc4)c3)ncn2)c(OC)cc1N1CCC(N2CCN(C3CC3)CC2)CC1 (centres unmarked) [Example compound 138, N-(2-(4-(4-cyclopropylpiperazin-1-yl)piperidin-1-yl)-4-methoxy-5-((6-(3-(3-(phenylethynyl)phenyl)isoxazolidin-2-yl)pyrimidin-4-yl)amino)phenyl)acrylamide] | 50 to 500 | –
8 | C=CC(=O)Nc1cc(Nc2cc(N3OCC[C@@H]3c3cccc(C#Cc4ccccc4)c3)ncn2)c(OC)cc1N1CCN(C)CC1 [Example 296, (R)-N-(4-methoxy-2-(4-methylpiper-azin-1-yl)-5-((6-(3-(3-(phenyleth-ynyl)phenyl)isox-azolidin-2-yl)pyr-imidin-4-yl)amino)-phenyl)acrylamide] | 50 to 500 | –
9 | C=CC(=O)Nc1cc(Nc2cc(N3OCC[C@@H]3c3cc(F)cc(-c4ccsc4)c3)ncn2)c(OC)cc1N1CCN(C)CC1 [Example 193, (R)-N-(5-((6-(3-(3-fluoro-5-(thiophen-3-yl)phenyl)isox-azolidin-2-yl)pyr-imidin-4-yl)amino)-4-methoxy-2-(4-methylpiperazin-1-yl)phenyl)acryl-amide] | < 50 | –
10 | C=CC(=O)Nc1cc(Nc2cc(N3OCCC3c3cccc(-c4cnc5ccnn5c4)c3)ncn2)c(OC)cc1N(C)CCN(C)C (centres unmarked) [Example 202, N-(2-((2-(dimethyl-amino)ethyl)-(methyl)amino)-4-methoxy-5-((6-(3-(3-(pyrazolo[1,5-a]pyrimidin-6-yl)-phenyl)isoxazol-idin-2-yl)pyrim-idin-4-yl)amino)-phenyl)acrylamide] | < 50 | –
11 | C=CC(=O)Nc1cc(Nc2cc(N3OCC[C@@H]3c3cccc(-c4cnc5ccnn5c4)c3)ncn2)c(OC)cc1N(C)CCN(C)C [Example 263, (R)-N-(2-((2-(dimethylamino)-ethyl)(methyl)-amino)-4-methoxy-5-((6-(3-(3-(pyr-azolo[1,5-a]pyrim-idin-6-yl)phenyl)-isoxazolidin-2-yl)-pyrimidin-4-yl)-amino)phenyl)-acrylamide] | < 50 | –
12 | C=CC(=O)Nc1cc(Nc2cc(N3OCC[C@@H]3c3cccc(C#Cc4cccc(F)c4)c3)ncn2)c(OC)cc1N(C)CCN(C)C [Example 313, (R)-N-(2-((2-(dimethylamino)-ethyl)(methyl)-amino)-5-((6-(3-(3-((3-fluorophen-yl)ethynyl)phenyl)-isoxazolidin-2-yl)pyrimidin-4-yl)-amino)-4-methoxy-phenyl)acrylamide] | < 50 | –
13 | C=CC(=O)Nc1cc(Nc2cc(N3OCCC3c3cccc(-c4nccs4)c3)ncn2)c(OC)cc1N(C)CCN(C)C (centres unmarked) [Example 238, N-(2-((2-(dimeth-ylamino)ethyl)-(methyl)amino)-4-methoxy-5-((6-(3-(3-(thiazol-2-yl)-phenyl)isoxazol-idin-2-yl)pyrim-idin-4-yl)amino)-phenyl)acrylamide] | < 50 | –
14 | C=CCN1CCN(c2cc(OC)c(Nc3cc(N4OCC[C@@H]4c4cccc(-c5cc(F)cc(F)c5)c4)ncn3)cc2NC(=O)C=C)CC1 [Example 271, (R)-N-(2-(4-allyl-piperazin-1-yl)-5-((6-(3-(3′,5′-difluoro-[1,1′-biphen-yl]-3-yl)-isoxazolidin-2-yl)-pyrimidin-4-yl)-amino)-4-methoxy-phenyl)acrylamide] | < 50 | –
15 | C=CC(=O)Nc1cc(Nc2cc(N3OCCC3c3cccc(-c4ccoc4)c3)ncn2)c(OC)cc1N1CCC(N2CCN(C3CC3)CC2)CC1 (centres unmarked) [Example compound 123, N-(2-(4-(4-cyclopropylpiperazin-1-yl)piperidin-1-yl)-5-((6-(3-(3-(furan-3-yl)phenyl)isoxazolidin-2-yl)pyrimidin-4-yl)amino)-4-methoxyphenyl)acrylamide] | < 50 | –
16 | C=CC(=O)Nc1cc(Nc2cc(N3OCC[C@@H]3c3cccc(-c4cc(F)cc(F)c4)c3)ncn2)c(OC)cc1N(C)CCN(C)C [Example 277, (R)-N-(5-((6-(3-(3′,5′-difluoro-[1,1′-biphenyl]-3-yl)-isoxazolidin-2-yl)-pyrimidin-4-yl)-amino)-2-((2-(dimethylamino)-ethyl)(methyl)-amino)-4-methoxy-phenyl)acrylamide] | < 50 | –
17 | C=CC(=O)Nc1cc(Nc2cc(N3OCC[C@@H]3c3cc(F)cc(Oc4cccc(F)c4)c3)ncn2)c(OC)cc1N(C)CCN(C)C [Example 199, (R)-N-(2-((2-(dimethylamino)-ethyl)(methyl)-amino)-5-((6-(3-(3-fluoro-5-(3-fluorophenoxy)-phenyl)isoxazol-idin-2-yl)pyrim-idin-4-yl)amino)-4-methoxyphen-yl)acrylamide] | 50 to 500 | –
